Results: US6610733B2, “Optically active chroman and thiochroman derivatives” (Chugai Seiyaku Kabushiki Kaisha, priority 1999, dated 2003)

System: estradiol-induced increase in uterine weight
Assay: Anti-estrogenic activity (oral administration): inhibition of estradiol-induced increase in uterine weight in ovariectomized mice
Type: in vivo, mice (ICR)
Conditions: ovariectomized mice given 17β-estradiol-benzoate 0.1 μg/mouse s.c. for 3 days, test compound 10 mg/kg p.o., once a day, uterine weight 24 hours after last administration
Procedure: Test compounds were assayed for their oral anti-estrogenic activity in the following manner. In this experiment, the compounds prepared in Examples 2 and 3 were used as test compounds and the corresponding racemic mixture (10-[(3RS,4RS)-7-hydroxy-3-(4-hydroxyphenyl)-3-methylthiochroman-4-yl]-2-(4,4,5,5,5-pentafluoropentyl)decanoic acid was used as a control compound. This control compound was synthesized according to Reaction Schemes 1 to 7 mentioned above.
In this experiment, each of the test and control compounds was suspended in 5% arabic gum solution and orally administered for 3 days on a once-a-day basis. After 24 hours from the last administration, the test animals were sacrificed and the uteri were removed and weighed.

| Compound | Inhibition (%) (10 mg/kg) | Inhibition (%) |
| --- | --- | --- |
| C[C@@]1(c2ccc(O)cc2)CSc2cc(O)ccc2[C@@H]1CCCCCCCCC(CCCC(F)(F)C(F)(F)F)C(=O)O (single isomer, unassigned) [Example 10, Peak 2] | 78% | – |
| C[C@@]1(c2ccc(O)cc2)CSc2cc(O)ccc2[C@@H]1CCCCCCCCC(CCCC(F)(F)C(F)(F)F)C(=O)O (single isomer, unassigned) [Example 10, Peak 1] | 87% | – |
| C[C@]1(c2ccc(O)cc2)CSc2cc(O)ccc2[C@H]1CCCCCCCCC(CCCC(F)(F)C(F)(F)F)C(=O)O (stereo partly drawn) [Example 3, 10-[(3S,4S)-7-Hydroxy-3-(4-hydroxyphenyl)-3-methylthiochroman-4-yl]-2-(4,4,5,5,5-pentafluoropentyl)decanoic Acid] | – | 69% |
| C[C@@]1(c2ccc(O)cc2)CSc2cc(O)ccc2[C@@H]1CCCCCCCCC(CCCC(F)(F)C(F)(F)F)C(=O)O (mixture of isomers) [10-[(3RS,4RS)-7-hydroxy-3-(4-hydroxyphenyl)-3-methylthiochroman-4-yl]-2-(4,4,5,5,5-pentafluoropentyl)decanoic acid, reference compound] | – | 75% |
| C[C@@]1(c2ccc(O)cc2)CSc2cc(O)ccc2[C@@H]1CCCCCCCCC(CCCC(F)(F)C(F)(F)F)C(=O)O (stereo partly drawn) [Example 2, 10-[(3R,4R)-7-Hydroxy-3-(4-hydroxyphenyl)-3-methylthiochroman-4-yl]-2-(4,4,5,5,5-pentafluoropentyl)decanoic Acid] | – | 90% |
